Results as given in publication PMC6389993, “Quercetin and its metabolite isorhamnetin promote glucose uptake through different signalling pathways in myotubes” (Scientific Reports, 2019).

How the values were obtained:
[1] = tested on: GLUT4; assay: GLUT4 translocation in L6 myotubes after siRNA knockdown of AMPKα, JAK2 or JAK3; format: cell-based, rat; settings: 1 nM quercetin or isorhamnetin
Experimental: (§1) For in vitro cell culture experiments, after serum starvation for 18 h, myotubes were treated with various concentrations of quercetin or isorhamnetin (0.1–10 nM) for 15 min; DMSO (final 0.1%) was used as a vehicle control. As positive controls, 100 nM insulin, 1 mM AICAR, 10 nM leptin, or 100 ng/mL IL-15 were used for insulin, AMPK, JAK2/STAT, or JAK3/STAT signalling pathways, respectively. Cells were treated with insulin or AICAR for 15 min, leptin for 60 min, or IL-15 for 24 h. Whole protein and plasma membrane fractions were prepared from myotubes, as previously described. For in vivo experiment, plasma membrane fraction and tissue lysate of soleus muscle were prepared.
(§2) Translocation of GLUT4 to the plasma membrane, as well as expression and phosphorylation levels of GLUT4-related regulators were estimated by western blot analysis. Briefly, equal amounts of proteins were separated by sodium dodecyl sulfate-polyacrylamide gel electrophoresis (SDS-PAGE). Separated proteins were transferred onto a polyvinylidene fluoride membrane and nonspecific binding sites were blocked using either Blocking One (to detect unphosphorylated proteins) or Blocking One-P (to detect phosphoproteins). The membrane was incubated overnight with an appropriate primary antibody for GLUT4 (1:5000), IR (1:10000), p-IRS1 (1:5000), IRS1 (1:5000), p-PI3K (1:5000), PI3K (1:10000), p-Akt (1:5000), Akt (1:10000), p-AMPKα (1:5000), AMPKα (1:10000), p-ACC (1:5000), ACC (1:10000), p-LKB1 (1:5000), LKB1 (1:10000), p-JAK2 (1:5000), JAK2 (1:5000), p-JAK3 (1:5000), JAK3 (1:10000), p-STAT1 (1:5000), STAT1 (1:10000), p-STAT3 (1:5000), STAT3 (1:10000), p-STAT5 (1:5000), STAT5 (1:10000), or β-actin (1:20000), and subsequently treated with the corresponding horseradish peroxidase-conjugated secondary antibody (1:50000) for 1 h. Specific immune complexes were developed using ImmunoStar® LD and detected with an ATTO Light-Capture II Western Blotting Detection System. Individual band density was calculated by ImageJ and normalized to the control.
Mature myotubes were cultured in antibiotic-free medium and transfected with siRNA at a final concentration of 50 nM using Lipofectamine RNAiMAX transfection reagent according to the manufacturer’s instructions. In brief, mature myotubes were transfected with siRNA in Opti-MEM for 48 h. Subsequently, the medium was changed to fresh Opti-MEM and cells were treated with the indicated concentrations of quercetin or isorhamnetin.

[2] = tested on: AMPK; assay: Phosphorylation of AMPK in L6 myotubes (western blot); format: cell-based, rat
Experimental: In vitro cultured cell experiments were conducted according to a previously described protocol[6],[14]. Briefly, L6 myoblasts derived from rat skeletal muscle and of less than 40 passages were maintained in MEM supplemented with 10% foetal bovine serum (FBS) and antibiotics (100 U/ml penicillin and 100 μg/ml streptomycin) at 37 °C under a humidified atmosphere condition of 5% CO2 and 95% air. In each experiment, cells (2.2 × 10^4 cells/ml) were seeded into 96-well plates or 60-mm dishes for induction of differentiation into mature myotubes. After reaching confluence, cells were supplemented with differentiation medium containing 2% FBS and the same antibiotics for 7 days. Cells were used for each experiment after morphological analysis of differentiation status using phase-contrast microscopy. To explore the contribution of CaMKKβ or intracellular-free calcium ions in quercetin- and isorhamnetin-stimulated GLUT4 translocation, L6 cells were incubated in the presence or absence of 10 μM STO-609 and 25 μM […], respectively, for 30 min prior to treatment with either quercetin or isorhamnetin.
as §1, §2
42 after morphological analysis of differentiation status using phase-contrast microscopy.
43 Preparation of whole protein and plasma membrane fractions After serum starvation
44 for 18 h, myotubes were treated with various concentrations of quercetin or isorhamnetin (1–
45 10 μM) for 15 min; DMSO (final 0.1%) was used as a vehicle control. As positive controls, […]

`NC(=O)c1ncn([C@@H]2O[C@H](CO)[C@@H](O)[C@H]2O)c1N` [AICAR, 5-aminoimidazole-4-carboxyamide ribonucleoside, reference compound] was tested, and the “compound-induced GLUT4 translocation after siRNA for AMPK” value ([1]; siAMPKα 50 nM 48 h, 1 mM AICAR) was “almost completely abolished”.

`CC(=O)OCOC(=O)CN(CC(=O)OCOC(C)=O)c1ccccc1OCCOc1ccccc1N(CC(=O)OCOC(C)=O)CC(=O)OCOC(C)=O` [BAPTA-AM, 1,2-Bis (2-aminophenoxy) ethane-N,N,N′,N′-tetraacetic acid tetrakis (acetoxymethyl ester), reference compound] was tested, and the “effect on quercetin-induced AMPK phosphorylation” value ([2]; 25 μM BAPTA-AM for 30 min prior to 1 nM quercetin) was “did not affect”.

In the case of `O=C(O)c1ccc2c3c1cccc3c(=O)n1c3ccccc3nc21` [STO-609, reference compound], the “effect on quercetin-induced AMPK phosphorylation” value ([2]; 10 μM STO-609 for 30 min prior to 1 nM quercetin) is reported as “abolished”.

In the case of “leptin: positive control for JAK2/STAT signalling pathway”, the “compound-induced GLUT4 translocation after siRNA for JAK2” value ([1]; siJAK2 50 nM 48 h, 10 nM leptin) is reported as “abolished”.
